In ChEMBL document CHEMBL1201862, “PubChem BioAssay data set” (2004):
The source made the active and inactive calls.

Experiments:
[1] = bead-based luminescence quenchers, dual-tagged ARNT – biochemical, AlphaScreen, cherry-pick, artefact control for ARNT-TACC3 interaction inhibitor project, dose response (AID 651705); assay type: functional;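 also: AlphaScreen bead proximity signal that flags compounds interfering with the detection technology; potency reflects signal decrease which marks the compound as an assay artifact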
Beta-galactosidase = Beta-galactosidase (Escherichia coli, UniProt Q8VNN2); assay: Dose response counterscreen for EBI2 assay utilizing the enzyme, b-galactosidase.; assay type: functional
Sequence of Beta-galactosidase (Q8VNN2 whole entry): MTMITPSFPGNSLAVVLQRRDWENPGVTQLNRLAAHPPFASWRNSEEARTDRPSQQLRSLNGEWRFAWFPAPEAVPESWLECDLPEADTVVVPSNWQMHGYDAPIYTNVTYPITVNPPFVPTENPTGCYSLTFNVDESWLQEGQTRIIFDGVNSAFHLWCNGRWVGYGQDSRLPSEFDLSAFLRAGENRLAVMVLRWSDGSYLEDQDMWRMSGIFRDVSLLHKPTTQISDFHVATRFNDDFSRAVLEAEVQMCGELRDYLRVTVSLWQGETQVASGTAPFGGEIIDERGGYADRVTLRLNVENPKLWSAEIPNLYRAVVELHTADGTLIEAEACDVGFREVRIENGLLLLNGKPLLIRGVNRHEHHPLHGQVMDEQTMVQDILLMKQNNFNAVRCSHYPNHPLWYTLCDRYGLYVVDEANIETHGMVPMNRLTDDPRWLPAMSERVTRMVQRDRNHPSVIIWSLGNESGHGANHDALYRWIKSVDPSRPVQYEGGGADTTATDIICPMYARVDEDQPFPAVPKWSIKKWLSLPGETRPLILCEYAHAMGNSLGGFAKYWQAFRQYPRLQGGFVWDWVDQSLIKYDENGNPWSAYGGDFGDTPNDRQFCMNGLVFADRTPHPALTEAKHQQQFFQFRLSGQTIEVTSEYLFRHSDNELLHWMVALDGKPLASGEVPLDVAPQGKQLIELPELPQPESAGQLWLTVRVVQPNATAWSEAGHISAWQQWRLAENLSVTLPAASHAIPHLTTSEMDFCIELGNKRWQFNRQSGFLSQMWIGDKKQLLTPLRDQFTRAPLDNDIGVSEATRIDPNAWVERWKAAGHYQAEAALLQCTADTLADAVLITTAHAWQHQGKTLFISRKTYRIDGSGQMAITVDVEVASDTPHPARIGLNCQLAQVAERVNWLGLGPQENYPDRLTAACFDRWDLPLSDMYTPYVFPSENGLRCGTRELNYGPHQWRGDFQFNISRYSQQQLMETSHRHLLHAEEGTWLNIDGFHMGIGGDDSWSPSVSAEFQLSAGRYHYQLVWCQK

Nonstructural protein 1 = Nonstructural protein 1 (Influenza A virus, UniProt Q194T2); assay type: functional, Influenza A virus (A/California/07/2009(H1N1))
Sequence of Nonstructural protein 1 (Q194T2 whole entry): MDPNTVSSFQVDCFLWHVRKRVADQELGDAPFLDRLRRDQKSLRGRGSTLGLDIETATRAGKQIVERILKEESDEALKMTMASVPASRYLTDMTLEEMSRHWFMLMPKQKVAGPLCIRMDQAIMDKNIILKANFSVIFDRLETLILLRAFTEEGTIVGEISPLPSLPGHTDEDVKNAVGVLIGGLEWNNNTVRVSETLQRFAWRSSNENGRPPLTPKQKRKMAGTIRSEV

HT-1080 = assay: HT1080 cell viability loss – fluorescence readout (AID 620); assay type: functional, cell-based; conditions: Homo sapiens
fMet-Leu-Phe receptor = biological target: T1, fMet-Leu-Phe receptor (Homo sapiens, UniProt P21462); assay: formyl peptide receptor binders – dose response (AID 519); assay type: functional
T1 sequence (P21462 whole entry): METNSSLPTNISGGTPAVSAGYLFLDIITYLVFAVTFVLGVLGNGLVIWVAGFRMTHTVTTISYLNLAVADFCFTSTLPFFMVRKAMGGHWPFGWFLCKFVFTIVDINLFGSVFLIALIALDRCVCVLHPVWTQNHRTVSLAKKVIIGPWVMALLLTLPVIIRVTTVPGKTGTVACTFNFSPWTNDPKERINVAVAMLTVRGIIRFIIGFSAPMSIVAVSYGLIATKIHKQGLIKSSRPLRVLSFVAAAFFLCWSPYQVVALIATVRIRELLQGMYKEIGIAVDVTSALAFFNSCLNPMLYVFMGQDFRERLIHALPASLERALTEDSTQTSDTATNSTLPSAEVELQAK

BJ [2] = assay: BJ-TERT fibroblast viability loss – cell-based, RAS-independent, luminescence, dose response (AID 1933); assay type: functional; conditions: Homo sapiens
BJ [3] = assay: cells; assay type: functional, cell-based; conditions: Homo sapiens
BJ [4] = assay: BJ-TERT-LT-ST fibroblast viability loss – cell-based, RAS-independent, luminescence, dose response (AID 1935); assay type: functional; conditions: Homo sapiens;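 also: BJ fibroblasts immortalized with TERT plus LT and ST oncogenes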
[5] = DRD fibroblast viability loss – cell-based, non-viral oncogenic, luminescence, dose response (AID 1934); assay type: functional; conditions: Homo sapiens
[6] = Luminescence Cell-Based Dose Retest to Confirm Inhibitors of Cancer Stem Cells. [Related pubchem assays (depositor defined):AID2717, AID2721]; assay type: functional; conditions: Homo sapiens
BJ [7] = assay: growth inhibition of engineered Ras-driven BJ cells – cell-based, alamar blue fluorescence, cherrypicked samples, dose response (AID 2631); assay type: functional; conditions: Homo sapiens;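 also: confirmatory dose-response assay in RAS-dependent BJ fibroblasts engineered with TERT, LT and ST, with cytotoxicity read by fluorescence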
INS1 = assay: INS-1E survival protection against cytokine death – cell-based, luminescence, retest, dose response (AID 449756); assay type: functional; conditions: Rattus norvegicus;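 also: cell death triggered by IL-1 beta plus TNF-alpha plus IFN-gamma mixture; protective hits raise ATP signal compared with cytokine alone wells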
HEK293 = assay: cells; assay type: functional, cell-based; conditions: Homo sapiens
[8] = biological target: T2, Nuclear receptor subfamily 0 group B member 1 (Homo sapiens, UniProt P51843); assay: Luminescence-based cell-based high throughput dose response assay for inhibitors of the orphan nuclear receptor subfamily 0, group B, member 1 (DAX1; NR0B1). [Related pubchem assays (depositor defined):AID504766, AID504790]; assay type: functional
T2 sequence (P51843 whole entry): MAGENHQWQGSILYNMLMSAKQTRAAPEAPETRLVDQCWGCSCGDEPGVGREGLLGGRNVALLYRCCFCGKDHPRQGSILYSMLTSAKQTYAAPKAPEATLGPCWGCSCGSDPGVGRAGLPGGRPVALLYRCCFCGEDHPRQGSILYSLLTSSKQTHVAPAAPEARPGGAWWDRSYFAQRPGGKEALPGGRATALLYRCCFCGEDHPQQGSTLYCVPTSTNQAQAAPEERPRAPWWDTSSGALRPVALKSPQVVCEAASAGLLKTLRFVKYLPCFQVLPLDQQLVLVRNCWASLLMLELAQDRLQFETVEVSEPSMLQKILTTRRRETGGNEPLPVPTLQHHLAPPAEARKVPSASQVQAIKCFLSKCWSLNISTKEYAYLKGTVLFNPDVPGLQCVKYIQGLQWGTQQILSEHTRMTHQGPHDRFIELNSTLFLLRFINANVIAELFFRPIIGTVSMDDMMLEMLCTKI

[9] = activation of miR-122 Renilla sensor silencing – cell-based, Huh7 psiCHECK-miR122, Renilla luciferase, cherry-picked, dose response (AID 651956); assay type: functional;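 also: huh7 hepatoma cells stably carrying a psiCHECK-2 miR-122 sensor plasmid; renilla luciferase signal reporting endogenous miR-122 activity after 48 h compound exposure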

SMILES: CC(=O)Nc1cccc(C(=O)OCC(=O)Nc2nnc(-c3ccccc3)o2)c1
- AC50 [1]: 96.8 µM (active)

SMILES: O=C(/C=C/c1ccccc1)N1CCC(Cc2ccccc2)CC1
- IC50 (Beta-galactosidase): > 80 µM (inactive)

SMILES: O=C(CSc1nnc(-c2cccnc2)o1)Nc1nccs1
- IC50 (Nonstructural protein 1): 10.9 µM (active)
- AC50 [1]: 129 µM (active)

SMILES: CC(C)(C)c1ccc(OCC(O)CSc2nc[nH]n2)cc1 (stereo not given)
- EC50 (HT-1080): > 50 µM (not active)

SMILES: COc1ccc2cnn(-c3ccccc3)c(=O)c2c1OC
- Ki (fMet-Leu-Phe receptor): > 66.7 µM (inactive)

SMILES: COc1ccccc1/C=C1\SC(=O)N(CCC(=O)NCCCn2ccnc2)C1=O
- EC50 (BJ [2]): > 150 µM (not active)
- EC50 (BJ [3]): > 150 µM (inconclusive)
- EC50 (BJ [4]): > 150 µM (not active)
- EC50 [5]: > 150 µM (not active)
- AC50 [6]: 13.5 µM (active)
- EC50 (BJ [7]): > 133 µM (inactive)
- AC50 (INS1): 5.64 µM (active)

SMILES: O=C(COC(=O)c1cccc(O)c1)Nc1nnc(-c2ccccc2)o1
- AC50 [1]: 74.4 µM (active)

SMILES: COc1cccc(/C=N/NC(=O)c2cccs2)c1
- IC50 (HEK293): > 67.5 µM (inactive)
- IC50 [8]: > 67.5 µM (inactive)

SMILES: CNC(=O)C[C@@H]1CC[C@@H]2[C@H](COc3ccc(NC(=O)Nc4cccc(C)c4)cc3C(=O)N2C)O1
- AC50 [9]: 24.9 µM (active)

SMILES: Cc1cc(C)nc(NC(=O)CSc2nn(-c3ccccc3)c(=S)s2)n1
- IC50 (HEK293): > 67.5 µM (inactive)
- IC50 [8]: > 67.5 µM (inactive)

SMILES: O=C(O)CC(CC(=O)Nc1ccc(F)c(Cl)c1)c1ccc(Cl)cc1Cl (stereo not given)
- IC50 (HEK293): > 67.5 µM (inactive)
- IC50 [8]: > 67.5 µM (inactive)

SMILES: Cc1cc(C)c2c(=O)n3c(nc2c1)C(Cc1ccccc1)NC(=O)c1cc2ccccc2cc1-3 (stereo not given)
- IC50 (Beta-galactosidase): > 80 µM (inactive)

SMILES: Clc1ccc(OCCn2ccnc2)c(Cl)c1
- IC50 (HEK293): > 67.5 µM (inactive)
- IC50 [8]: > 67.5 µM (inactive)

SMILES: CC1CCN(c2nc(-c3ccccc3)c(C#N)c(=O)[nH]2)CC1
- Ki (fMet-Leu-Phe receptor): > 66.7 µM (inactive)
